One test relates to WSU-DLCL2 cells. Put plainly: Cell proliferation analysis (WSU-DLCL2, Cell Titer Glo). Format: cell-based. The conditions noted are these: Homo sapiens, WSUDLCL2, Table 3B, 6 days, read-out: WSU proliferation IC50. (ATP-based viability assays read luminescence as a measure of living cells.)
For test [1], the system named is H3K27me3 in WSU-DLCL2 cells. The test can be described thus: WSU-DLCL2 methylation assay (H3K27me3 ELISA). As to conditions: Homo sapiens, WSUDLCL2, Table 3B, 96 hours, read-out: ELISA H3K27me3 IC50. Format: cell-based. (In general: ELISA stands for enzyme-linked immunosorbent assay.)
Source text: WSU-DLCL2 suspension cells were purchased from DSMZ (German Collection of Microorganisms and Cell Cultures, Braunschweig, Germany). RPMI/Glutamax Medium, Penicillin-Streptomycin, Heat Inactivated Fetal Bovine Serum, and D-PBS were purchased from Life Technologies, Grand Island, N.Y., USA. Extraction Buffer and Neutralization Buffer (5×) were purchased from Active Motif, Carlsbad, Calif., USA. Rabbit anti-Histone H3 antibody was purchased from Abcam, Cambridge, Mass., USA. Rabbit anti-H3K27me3 and HRP-conjugated anti-rabbit-IgG were purchased from Cell Signaling Technology, Danvers, Mass., USA. TMB “Super Sensitive” substrate was sourced from BioFX Laboratories, Owings Mills, Md., USA. IgG-free Bovine Serum Albumin was purchased from Jackson ImmunoResearch, West Grove, Pa., USA. PBS with Tween (10×PBST) was purchased from KPL, Gaithersburg, Md., USA. Sulfuric Acid was purchased from Ricca Chemical, Arlington, Tex., USA. Immulon ELISA plates were purchased from Thermo, Rochester, N.Y., USA. V-bottom cell culture plates were purchased from Corning Inc., Corning, N.Y., USA. V-bottom polypropylene plates were purchased from Greiner Bio-One, Monroe, N.C., USA.
WSU-DLCL2 cells were seeded in assay medium at a concentration of 50,000 cells per mL to a 96-well V-bottom cell culture plate with 200 μL per well. […] Plates were incubated on a titer-plate shaker at 37° C., 5% CO2 for 96 hours. After four days of incubation, plates were spun at 241×g for five minutes and medium was aspirated gently from each well of cell plate without disturbing cell pellet. Pellet was resuspended in 200 μL DPBS and plates were spun again at 241×g for five minutes. The supernatant was aspirated and cold (4° C.) Extraction buffer (100 μL) was added per well. Plates were incubated at 4° C. on orbital shaker for two hours. […] Supernatant (80 μL per well) was transferred to its respective well in 96 well V-bottom polypropylene plate. Neutralization Buffer 5× (20 μL per well) was added to V-bottom polypropylene plate containing supernatant. V-bottom polypropylene plates containing crude histone preparation (CHP) were incubated on orbital shaker×five minutes. Crude Histone Preparations were added (2 μL per well) to each respective well into duplicate 96 well ELISA plates containing 100 μL Coating Buffer (1×PBS+BSA 0.05% w/v). Plates were sealed and incubated overnight at 4° C. The following day, plates were washed three times with 300 μL per well 1×PBST. […] For H3K27me3 detection, 100 μL of HRP conjugated anti-rabbit IgG antibody diluted to 1:4000 in ELISA diluent was added per well. Plates were incubated at room temperature for 90 minutes. […] TMB substrate 100 μL was added per well. Histone H3 plates were incubated for five minutes at room temperature. H3K27me3 plates were incubated for 10 minutes at room temperature. The reaction was stopped with sulfuric acid 1N (100 μL per well). Absorbance for each plate was read at 450 nm.
Each plate included eight control wells of DMSO only treatment (Minimum Inhibition) as well as eight control wells for maximum inhibition (Background wells).
The average of the ratio values for each control type was calculated and used to determine the percent inhibition for each test well in the plate. […] Percent inhibition was determined and IC50 curves were generated using duplicate wells per concentration of compound.
The target of test [2] is wild-type EZH2 (PRC2 complex) (Homo sapiens (Human), UniProt Q15910). The test can be described thus: PRC2 enzyme assay on peptide substrates (wild-type EZH2). As to conditions: read-out: WT EZH2 IC50; Table 3B; wild-type PRC2 enzyme, peptide substrate.
Sequence of wild-type EZH2 (PRC2 complex) (Q15910 other isoform, or with tags, fused parts or gaps): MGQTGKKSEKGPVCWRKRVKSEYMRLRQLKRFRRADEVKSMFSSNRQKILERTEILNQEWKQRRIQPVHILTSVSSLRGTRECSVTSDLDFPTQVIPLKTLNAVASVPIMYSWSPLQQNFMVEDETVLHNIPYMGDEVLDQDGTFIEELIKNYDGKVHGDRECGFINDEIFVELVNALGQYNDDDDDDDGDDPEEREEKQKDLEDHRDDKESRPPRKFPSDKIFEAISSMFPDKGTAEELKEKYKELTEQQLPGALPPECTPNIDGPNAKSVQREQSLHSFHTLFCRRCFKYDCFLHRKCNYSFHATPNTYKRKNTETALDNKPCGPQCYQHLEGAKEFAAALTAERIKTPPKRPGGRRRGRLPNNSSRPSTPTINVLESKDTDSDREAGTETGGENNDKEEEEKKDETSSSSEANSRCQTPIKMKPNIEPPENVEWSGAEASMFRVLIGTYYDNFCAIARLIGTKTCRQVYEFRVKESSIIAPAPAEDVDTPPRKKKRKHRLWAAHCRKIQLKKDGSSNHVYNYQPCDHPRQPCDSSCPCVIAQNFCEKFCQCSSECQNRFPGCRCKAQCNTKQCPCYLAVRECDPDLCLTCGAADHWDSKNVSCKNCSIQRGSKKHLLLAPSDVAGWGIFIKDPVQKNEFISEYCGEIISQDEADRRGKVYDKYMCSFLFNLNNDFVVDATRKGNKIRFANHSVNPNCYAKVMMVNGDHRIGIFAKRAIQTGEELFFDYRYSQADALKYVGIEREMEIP
Sequence of wild-type EZH2 (PRC2 complex) (O75530 whole entry partner): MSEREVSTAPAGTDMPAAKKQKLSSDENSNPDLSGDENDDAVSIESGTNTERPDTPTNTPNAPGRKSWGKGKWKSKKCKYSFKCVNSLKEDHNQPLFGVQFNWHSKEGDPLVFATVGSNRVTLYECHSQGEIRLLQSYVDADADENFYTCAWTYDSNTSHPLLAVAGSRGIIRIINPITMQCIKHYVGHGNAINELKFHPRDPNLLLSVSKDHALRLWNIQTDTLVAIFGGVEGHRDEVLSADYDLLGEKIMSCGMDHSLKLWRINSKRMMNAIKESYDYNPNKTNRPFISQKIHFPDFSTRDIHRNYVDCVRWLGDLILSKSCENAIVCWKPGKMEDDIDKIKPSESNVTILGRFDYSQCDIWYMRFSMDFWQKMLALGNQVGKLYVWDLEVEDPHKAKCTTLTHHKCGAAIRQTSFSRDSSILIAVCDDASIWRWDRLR
Sequence of wild-type EZH2 (PRC2 complex) (Q15022 whole entry partner): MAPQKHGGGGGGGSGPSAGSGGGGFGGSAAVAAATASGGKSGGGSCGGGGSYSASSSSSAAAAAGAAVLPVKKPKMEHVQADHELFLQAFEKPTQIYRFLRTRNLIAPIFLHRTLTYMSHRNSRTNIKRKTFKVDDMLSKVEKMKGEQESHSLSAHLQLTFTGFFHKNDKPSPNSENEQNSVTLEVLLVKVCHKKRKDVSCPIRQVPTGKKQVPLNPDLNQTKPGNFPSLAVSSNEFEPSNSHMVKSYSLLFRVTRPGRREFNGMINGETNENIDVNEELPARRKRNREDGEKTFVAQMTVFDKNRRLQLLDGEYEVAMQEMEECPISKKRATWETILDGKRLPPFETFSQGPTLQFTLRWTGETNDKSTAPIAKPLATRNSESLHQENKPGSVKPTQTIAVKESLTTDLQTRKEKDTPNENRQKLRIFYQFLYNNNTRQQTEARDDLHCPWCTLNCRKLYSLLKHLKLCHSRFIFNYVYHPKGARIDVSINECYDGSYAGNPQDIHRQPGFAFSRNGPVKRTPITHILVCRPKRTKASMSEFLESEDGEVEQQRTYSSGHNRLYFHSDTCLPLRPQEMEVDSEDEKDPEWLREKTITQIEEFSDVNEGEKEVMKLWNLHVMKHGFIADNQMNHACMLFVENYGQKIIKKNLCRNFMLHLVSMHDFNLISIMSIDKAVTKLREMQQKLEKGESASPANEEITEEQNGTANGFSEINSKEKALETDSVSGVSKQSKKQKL
Sequence of wild-type EZH2 (PRC2 complex) (Q09028 whole entry partner): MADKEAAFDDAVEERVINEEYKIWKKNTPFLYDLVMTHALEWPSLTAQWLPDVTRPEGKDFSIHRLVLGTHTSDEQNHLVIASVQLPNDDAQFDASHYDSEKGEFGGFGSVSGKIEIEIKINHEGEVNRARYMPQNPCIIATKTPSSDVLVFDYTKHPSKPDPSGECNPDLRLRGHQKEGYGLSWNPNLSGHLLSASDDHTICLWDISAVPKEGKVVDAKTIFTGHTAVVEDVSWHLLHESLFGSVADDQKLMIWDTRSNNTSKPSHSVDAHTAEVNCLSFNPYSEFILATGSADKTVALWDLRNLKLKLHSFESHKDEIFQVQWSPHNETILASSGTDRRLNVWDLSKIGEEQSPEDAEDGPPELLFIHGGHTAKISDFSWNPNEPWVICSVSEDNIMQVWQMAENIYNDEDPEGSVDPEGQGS

As to `CCN(c1cc(C#CCN2CC(O)C2)cc(C(=O)NCc2c(C(C)C)cc(C)[nH]c2=O)c1C)[C@H]1CC[C@H](N(C)C)CC1` [Compound 110], the IC50 in the test with WSU-DLCL2 cells was 2450 nM; in test [1], 2010 nM; in test [2] it was under 10 nM.

As to `CCN(c1cc(F)cc(C(=O)NCc2c(C)cc(C)n(C)c2=O)c1C)C1C[C@@H](C)N[C@H](C)C1` (stereo partly drawn) [Compound 113], the IC50 with WSU-DLCL2 cells was over 20000 nM; in test [1] it was over 25000 nM; in test [2], 1220 nM.

`CCN(c1cc(F)cc(C(=O)NCc2c(C)c(F)c(C)n(C)c2=O)c1C)C1C[C@@H](C)N[C@H](C)C1` (stereo partly drawn) [Compound 115]: the IC50 is over 20000 nM in the test on WSU-DLCL2 cells, over 25000 nM in test [1] and 497 nM in test [2].

For the molecule `CCCc1cc(C)[nH]c(=O)c1CNC(=O)c1cc(F)cc(N(CC)C2C[C@@H](C)N[C@H](C)C2)c1C` (stereo partly drawn) [Compound 116], the IC50 in the test with WSU-DLCL2 cells was 13200 nM; in test [1], over 25000 nM; in test [2] it was 132 nM.

On to `CCN(c1cc(F)cc(C(=O)NCc2c(C(C)C)cc(C)[nH]c2=O)c1C)C1C[C@@H](C)N[C@H](C)C1` (stereo partly drawn) [Compound 117], for which the IC50 in the test with WSU-DLCL2 cells was over 20000 nM; in test [1], 8960 nM; in test [2], 350 nM.

In the case of `CCN(c1cc(F)cc(C(=O)NCc2c(C)cc(C)[nH]c2=O)c1C)C1C[C@@H](C)N(C)[C@H](C)C1` (stereo partly drawn) [Compound 118], the IC50 in the test on WSU-DLCL2 cells was determined as 3950 nM; in test [1], 11700 nM; in test [2], 36.3 nM.

Turning to `CCN(c1cc(F)cc(C(=O)NCc2c(C)cc(C)[nH]c2=O)c1C)C1C[C@@H](C)N(CC)[C@H](C)C1` (stereo partly drawn) [Compound 119], the IC50 in the test with WSU-DLCL2 cells was found to be 3380 nM; in test [1], 11300 nM; in test [2], 18.5 nM.

Take `CCN(c1cc(-c2ccc(OC)nc2)cc(C(=O)NCc2c(C)cc(C)[nH]c2=O)c1C)C1C[C@@H](C)N[C@H](C)C1` (stereo partly drawn) [Compound 120]: the IC50 in the test with WSU-DLCL2 cells was 1380 nM; in test [1] it was 1430 nM; in test [2], under 10 nM.

`CCN(c1cc(-c2ccc(CN3CCOCC3)nc2)cc(C(=O)NCc2c(C)cc(C)[nH]c2=O)c1C)C1C[C@@H](C)N[C@H](C)C1` (stereo partly drawn) [Compound 121]: the IC50 in the test with WSU-DLCL2 cells is 3830 nM; in test [1], 13900 nM; in test [2], under 10 nM.

As to `CCN(c1cc(-c2ccc(CN3CCN(C)CC3)nc2)cc(C(=O)NCc2c(C)cc(C)[nH]c2=O)c1C)C1C[C@@H](C)N[C@H](C)C1` (stereo partly drawn) [Compound 122], the values for the IC50 (with WSU-DLCL2 cells; in test [1]; in test [2]) were 7560 nM, over 25000 nM and under 10 nM, respectively.

On to `CCN(c1cc(-c2ccc(CN3CCNCC3)nc2)cc(C(=O)NCc2c(C)cc(C)[nH]c2=O)c1C)C1C[C@@H](C)N[C@H](C)C1` (stereo partly drawn) [Compound 123], for which the IC50 was 7900 nM in the test with WSU-DLCL2 cells, over 25000 nM in test [1] and under 10 nM in test [2].

On to `CCN(c1cc(-c2cnc(OC)cn2)cc(C(=O)NCc2c(C(C)C)cc(C)[nH]c2=O)c1C)C1CCOCC1` [Compound 126], for which the results for the IC50 (with WSU-DLCL2 cells; in test [1]; in test [2]) were 906 nM, 2030 nM and under 10 nM, respectively.

In the case of `CCN(c1cc(-c2cnc(OC(C)C)cn2)cc(C(=O)NCc2c(C)cc(C)[nH]c2=O)c1C)C1CCOCC1` [Compound 127], the IC50 with WSU-DLCL2 cells is 717 nM; in test [1], 525 nM; in test [2] it was under 10 nM.

Consider `CCN(c1cc(-c2cnc(C(F)(F)F)cn2)cc(C(=O)NCc2c(C)cc(C)[nH]c2=O)c1C)C1CCOCC1` [Compound 128], for which the IC50 in the test with WSU-DLCL2 cells is 975 nM; in test [1], 1550 nM; in test [2], under 10 nM.

With `CCN(c1cc(-c2cnc(OC3CN(C)C3)cn2)cc(C(=O)NCc2c(C)cc(C)[nH]c2=O)c1C)C1CCOCC1` [Compound 131], the IC50 is 194 nM in the test with WSU-DLCL2 cells, 306 nM in test [1] and under 10 nM in test [2].

For `CCN(c1cc(-c2cnc(OC3CCN(C)CC3)cn2)cc(C(=O)NCc2c(C)cc(C)[nH]c2=O)c1C)C1CCOCC1` [Compound 132], the IC50 in the test on WSU-DLCL2 cells was 526 nM; in test [1], 177 nM; in test [2] it was 20 nM.

As to `CCN(c1cc(-c2ccc(CN3CCCN(C)CC3)nc2)cc(C(=O)NCc2c(C)cc(C)[nH]c2=O)c1C)[C@H]1CC[C@H](N(C)C)CC1` [Compound 146], the values for the IC50 (with WSU-DLCL2 cells; in test [1]; in test [2]) were 217 nM, 161 nM and under 10 nM, respectively.

Turning to `CCN(c1cc(-c2ccc(CN3CCC[C@H](O)C3)nc2)cc(C(=O)NCc2c(C)cc(C)[nH]c2=O)c1C)[C@H]1CC[C@H](N(C)C)CC1` [Compound 147], the results for the IC50 (in the test with WSU-DLCL2 cells; in test [1]; in test [2]) were 116 nM, 74.3 nM and under 10 nM, respectively.

Take `CCN(c1cc(-c2ccc(CN3CC[C@H](O)C3)nc2)cc(C(=O)NCc2c(C)cc(C)[nH]c2=O)c1C)[C@H]1CC[C@H](N(C)C)CC1` [Compound 148, N-((4,6-Dimethyl-2-oxo-1,2-dihydropyridin-3-yl)methyl)-3-((4-trans-(dimethylamino)cyclohexyl)(ethyl)amino)-5-(6-(((S)-3-hydroxypyrrolidin-1-yl)methyl)pyridin-3-yl)-2-methylbenzamide]: the values for the IC50 (in the test on WSU-DLCL2 cells; in test [1]; in test [2]) were 243 nM, 504 nM and under 10 nM, respectively.

As to `CCN(c1cc(-c2cnc(N3CCN(C)CC3)cn2)cc(C(=O)NCc2c(C)cc(C)[nH]c2=O)c1C)[C@H]1CC[C@H](N(C)C)CC1` [Compound 149], the IC50 in the test with WSU-DLCL2 cells is 316 nM; in test [1], 20 nM; in test [2] it was under 10 nM.

In the case of `CCN(c1cc(-c2ccc(CN3CC[C@H](O)C3)nc2)cc(C(=O)NCc2c(C(C)C)cc(C)[nH]c2=O)c1C)[C@H]1CC[C@H](N(C)C)CC1` [Compound 150], the results for the IC50 (with WSU-DLCL2 cells; in test [1]; in test [2]) were 361 nM, 377 nM and under 10 nM, respectively.

With `CCN(c1cc(-c2ccc(CN3CC(O)C3)nc2)cc(C(=O)NCc2c(C)cc(C)[nH]c2=O)c1C)[C@H]1CC[C@H](N(C)C)CC1` [Compound 151], the IC50 is 682 nM in the test with WSU-DLCL2 cells, 618 nM in test [1] and under 10 nM in test [2].

As for `CCN(c1cc(-c2ccc(COC)nc2)cc(C(=O)NCc2c(C)cc(C)[nH]c2=O)c1C)[C@H]1CC[C@H](N(C)C)CC1` [Compound 152], the IC50 with WSU-DLCL2 cells was determined as 412 nM; in test [1] it was 60 nM; in test [2] it was 18 nM.

Regarding `CCN(c1cc(-c2ccc(C(=O)NCCO)cc2)cc(C(=O)NCc2c(C(C)C)cc(C)[nH]c2=O)c1C)C1CCOCC1` [Compound 156], the IC50 is 890 nM in the test on WSU-DLCL2 cells, 684 nM in test [1] and under 10 nM in test [2].

These data come from patent publication US11642348B2, “Substituted benzene compounds” (Epizyme, Inc., priority 2012, dated 2023).
